The source of these data is BindingDB's records for doi:10.7270/Q23R0R98 (Johns Hopkins Ion Channel Center, 2010).

This assay has as its target T1, Inward rectifier potassium channel 2 (Mus musculus, UniProt P35561).
T1 sequence (P35561 whole entry): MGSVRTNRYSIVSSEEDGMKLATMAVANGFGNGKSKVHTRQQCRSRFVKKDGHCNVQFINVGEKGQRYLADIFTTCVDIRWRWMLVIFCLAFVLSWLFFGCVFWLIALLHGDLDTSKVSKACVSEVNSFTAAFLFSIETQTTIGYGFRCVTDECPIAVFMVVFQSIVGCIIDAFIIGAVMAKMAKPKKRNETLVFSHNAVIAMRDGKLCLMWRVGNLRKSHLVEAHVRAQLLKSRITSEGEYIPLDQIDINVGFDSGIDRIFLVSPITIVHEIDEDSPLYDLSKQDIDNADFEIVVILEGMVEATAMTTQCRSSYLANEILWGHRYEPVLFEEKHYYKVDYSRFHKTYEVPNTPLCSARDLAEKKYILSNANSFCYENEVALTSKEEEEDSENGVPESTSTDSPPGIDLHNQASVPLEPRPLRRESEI
Briefly: Kir2.1 inward rectifier channel blockers, dose response, mouse Kir2.1 (AID 2594).

As usually defined, the IC50 is the concentration that inhibits the measured activity by half. A lower IC50 goes with greater potency.

Structures can show the parent of a compound that is named as a salt.

For the compound `CC(O)CNCCCOc1cccc(Oc2ccccc2)c1` (stereo not given) [oxalic acid;1-[3-(3-phenoxyphenoxy)propylamino]-2-propanol], the IC50 was 23.6 µM.

`CC(NS(=O)(=O)c1ccc(Br)s1)c1ccccc1` (stereo not given) registered an IC50 of 19.8 µM.

Consider `Cc1ccc(OCC(O)CNCc2ccc(F)cc2)cc1` (stereo not given) [1-[(4-fluorophenyl)methylamino]-3-(4-methylphenoxy)propan-2-ol], for which the IC50 worked out at 24.6 µM.

`COc1ccc(CNCc2cccc3ccccc23)cc1` showed a 50% inhibitory concentration (IC50) of 26.9 µM.

In the case of `COc1ccc(Nc2ccnc3ccccc23)cc1` [SMR000033695], the IC50 is 34 µM.

`c1ccc(COc2ccc(OCCCNC3CCCC3)cc2)cc1` [MLS000535503] returned an IC50 of 33.5 µM.

For the compound `CCn1c(Sc2ccc(N)cc2Cl)nc2ccccc21` [SMR000078102], inhibition was half-maximal at 35.6 µM (IC50).

Compound `CC(NS(=O)(=O)c1ccc(Br)cc1)c1ccccc1` (stereo not given) [SMR000516693] returned an IC50 of 25.6 µM.

Compound `Fc1ccc(N2CCN(Cc3c[nH]c4ccccc34)CC2)cc1` [3-[[4-(4-fluorophenyl)piperazin-1-yl]methyl]-1H-indole] displayed an IC50 of 30.6 µM.

For `Cc1ccc(Nc2cc(C)nc3c(C)cccc23)cc1` [2,8-dimethyl-N-(4-methylphenyl)quinolin-4-amine], the IC50 came out at 43.1 µM.

Regarding `CSc1ccc(S(=O)(=O)NC(C)c2ccccc2)cc1` (stereo not given) [MLS000693878], it took 43 µM to reach half-maximal inhibition (IC50).

With `Cc1ccc(O)c(CNCCNCc2cc(C)ccc2O)c1` [4-methyl-2-[[2-[(5-methyl-2-oxidanyl-phenyl)methylamino]ethylamino]methyl]phenol], the IC50 amounted to 21.5 µM.

As to `Clc1ccc(CNC2CCN(Cc3ccccc3)CC2)cc1` [N-[(4-chlorophenyl)methyl]-1-(phenylmethyl)-4-piperidinamine], half-maximal inhibition (IC50) was put at 37.7 µM. This IC50 is about 1.8-fold higher than that of the compound before.

Regarding `O=S(=O)(c1ccc(F)cc1)N1CCCc2ccccc21` [SMR000514216], the half-maximal inhibitory concentration (IC50) was 58.5 µM.

`CCCN1CCC(NC23CC4CC(CC(C4)C2)C3)CC1` [N-(1-adamantyl)-1-propyl-4-piperidinamine] yielded an IC50 of 54.2 µM.

`Cc1ccc2[nH]c(NCc3ccccc3)nc2c1` [MLS000081058]: the IC50 was 33.4 µM.

The compound `COc1ccc(CNCCc2ccc3c(c2)OCO3)cc1Br` [SMR000555601] displayed an IC50 of 34.7 µM.

The compound `CC(C)(C)OC(=O)NCCc1nnc(SCc2ccc(Cl)cc2)o1` [MLS000557943] yielded an IC50 of 15.8 µM.

For `CCn1c(COc2ccccc2)nnc1SCc1ccc(C#N)cc1` [4-[[4-ethyl-5-(phenoxymethyl)-1,2,4-triazol-3-yl]sulfanylmethyl]benzonitrile], the IC50 was 48.3 µM.

In turn, `COc1ccc(CNC/C=C/c2ccccc2)cc1` [(E)-N-[(4-methoxyphenyl)methyl]-3-phenyl-prop-2-en-1-amine;hydrochloride] yielded an IC50 of 22.3 µM.
